Columns and labels:
A375 cells = experiment: qRT-PCR of p21 mRNA; type: cell-based, human; settings: cisplatin 1 μM alone
Experimental: Total RNA was isolated by using the RNeasy Mini kit (Qiagen) from cells treated with RE01 (1.5 μM), cisplatin (1 μM) and a combination of both RE01 (1.5 μM) and cisplatin (1 μM). 5 ng of RNA from each sample was mixed with 10 μl of Applied Biosystems™ PowerUp™ SYBR™ Green Master Mix (ThermoFisher), 1 μl of MultiScribe™ Reverse Transcriptase (ThermoFisher), 0.1 μl of RNaseOUT™ Recombinant Ribonuclease Inhibitor and 5.9 μl of RNase-free water, and run in a one-step qRT-PCR reaction. Each reaction was run in triplicate. Primers used were: p21 F 5′-[…]-3′ (SEQ ID NO: 9), p21 R 5-CGGCGTTTGGAGTGG TAGAAA-3′ (SEQ ID NO: 10); GAPDH F 5′-[…]-3′ (SEQ ID NO: 11), GAPDH R 5′-[…]-3′ (SEQ ID NO: 12).

[1] = molecular target: T1, chimeric REV1 CTD protein (Mus musculus, UniProt Q920Q2); experiment: Isothermal titration calorimetry; type: binding; settings: 25° C.
T1 construct: the mouse REV1 CTD (F1150-T1249); His10-GB1 (TEV site) (N, cleaved yes); made in house; host or cells: E. coli BL21 Star (DE3)
T1 sequence (Q920Q2 1150-1249): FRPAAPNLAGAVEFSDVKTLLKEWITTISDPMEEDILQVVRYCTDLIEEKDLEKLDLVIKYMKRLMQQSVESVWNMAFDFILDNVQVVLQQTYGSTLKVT
Experimental: Isothermal titration calorimetry measurements were carried out using a MicroCal VP-ITC instrument at 25° C., with the chimeric REV1 CTD protein (300 μM) in the syringe and compound (15 μM) in the cell. Compounds were initially dissolved in 50% MPD. Protein and compound samples were diluted in a buffer containing 50 mM HEPES pH 7.5, 50 mM KCl, 2 mM TCEP, 2% DMSO and 0.1% MPD. Microcal Origin 7 software was used to analyze the data.

[2] = system: REV1 CTD-REV7 interaction; experiment: ELISA assay probing the REV1 CTD-REV7 interaction; type: binding, mouse; settings: ratio of test compound IC50 to RE01 IC50
Experimental: The ELISA assay for probing the REV1 CTD-REV7 interaction was carried out by immobilizing 50 nM His8-tagged REV7/3 in 200 μL phosphate-buffered saline (PBS, Gibco) containing 0.2% BSA in a Ni-NTA coated 96-well plate (HisSorb, Qiagen) for 30 minutes. Unbound His8-tagged REV7/3 was removed by washing the wells four times with PBS containing 0.05% Tween-20. […] After incubation for 30 minutes, the wells were washed four times with PBS containing 0.05% Tween-20 to remove the unbound FLAG-tagged POL κ RIR-REV1 CTD. A solution of the anti-FLAG horseradish peroxidase (HRP)-conjugated antibody (Sigma-Aldrich) in PBS containing 0.2% BSA was then added to the wells. After incubating for 1 hour, the antibody was washed off four times with PBS containing 0.05% Tween-20. The 3,3′,5,5′-tetramethylbenzedine (TMB) substrate (SureBlue TMB, Seracare) was added to the wells. After incubation of 20-30 minutes, the reaction was quenched with 1 M HCl. A SpectraMax plate reader (Molecular Devices) was used to measure absorbance at 450 nm.

Row | SMILES | Relative IC50 Ratio [2] | also measured
1 | N.N.[Cl][Pt][Cl] [cisplatin, cis-diammineplatinum(II) dichloride, reference compound] |  | levels of the p21 biomarker (A375 cells): elevated levels
2 | CC(C)CC(=O)c1c(N2CCOCC2)[nH]c2c(Cl)ccc([N+](=O)[O-])c2c1=O [RE07, 8-chloro-3-(3-methylbutanoyl)-2-morpholino-5-nitroquinolin-4(1H)-one] |  | REV1 CTD binding [1]: abolished the REV1 CTD binding
3 | CC(C)CC(=O)c1c(Nc2ccc(Cl)cc2Cl)[nH]c2c(Cl)ccc(O)c2c1=O [RE30, 8-chloro-2-((2,4-dichlorophenyl)amino)-5-hydroxy-3-(3-methylbutanoyl)quinolin-4(1H)-one] | C (C represents a ratio of test compound IC50 to RE01 IC50 between 1.5-10) | 
4 | CC(C)CC(=O)c1c(Nc2ccc(Cl)cc2Cl)[nH]c2c(F)ccc([N+](=O)[O-])c2c1=O [RE38, 2-((2,4-dichlorophenyl)amino)-8-fluoro-3-(3-methylbutanoyl)-5-nitroquinolin-4(1H)-one] | B (B represents a ratio of test compound IC50 so to RE1 IC50 between 0.8 and 1.5) | 
5 | CC(C)CC(=O)c1c(Nc2ccccc2)[nH]c2c(Cl)ccc([N+](=O)[O-])c2c1=O [RE16, 8-chloro-3-(3-methylbutanoyl)-5-nitro-2-(phenylamino)quinolin-4(1H)-one] | C (C represents a ratio of test compound IC50 to RE01 IC50 between 1.5-10) | 
6 | Cc1ccc(Cl)c2[nH]c(Nc3ccc(Cl)cc3Cl)c(C(=O)CC(C)C)c(=O)c12 [RE27, 8-chloro-2-((2,4-dichlorophenyl)amino)-5-methyl-3-(3-methylbutanoyl)quinolin-4(1H)-one] | C (C represents a ratio of test compound IC50 to RE01 IC50 between 1.5-10) | 
7 | CC(C)CC(=O)c1c(Nc2ccc(Cl)cc2Cl)[nH]c2c(C(=O)O)ccc(Cl)c2c1=O [RE08, 5-chloro-2-((2,4-dichlorophenyl)amino)-3-(3-methylbutanoyl)-4-oxo-1,4-dihydroquinoline-8-carboxylic acid] | B (B represents a ratio of test compound IC50 so to RE1 IC50 between 0.8 and 1.5) | 

From patent US11801242B2, “Compositions and methods for adjuvant cancer therapeutics” (DUKE UNIVERSITY, priority 2018, dated 2023)
